Broadly, the IC50 is the midpoint of a concentration-inhibition curve. Read a low IC50 as greater potency. A word on the MIC: it is the lowest concentration that inhibits growth of the organism. A word on the inhibition: it is the percentage by which the read-out fell short of the control.

Consider six compounds from ChEMBL document CHEMBL5370585, “Exploration and Biological Evaluation of 1,3-Diamino-7H-pyrrol[3,2-f]quinazoline Derivatives as Dihydrofolate Reductase Inhibitors” (J Med Chem, 2023).

In brackets after ≈: the same amount, converted by molar mass.

In series [1] the test system is MCF7. Nature of the series: Cytotoxicity against human MCF7 cells measured after 72 hrs by MTT assay. It counts as functional, cell-based. Particulars: MCF7, 72 h. A general note: Tetrazolium assays rely on reduction of a dye to a coloured formazan, in cell work by metabolically active cells.
Series [2] concerns HGC-27. Nature of the series: Cytotoxicity against human HGC-27 cells measured after 72 hrs by MTT assay. Conditions: HGC-27, 72 h. The format is functional, cell-based.
For series [3], the system named is HepG2. Nature of the series: Cytotoxicity against human HepG2 cells measured after 72 hrs by MTT assay. The format is functional, cell-based. Particulars: HepG2, 72 h.
Series [4] concerns Enterococcus faecalis. Nature of the series: Antibacterial activity against Enterococcus faecalis ATCC 29212 incubated for 16 to 18 hrs by CLSI based broth dilution method. The format is functional. Particulars: time 16-18 hrs.
In series [5] the test system is Staphylococcus aureus. Nature of the series: Antibacterial activity against methicillin-resistant Staphylococcus aureus ATCC 43300 incubated for 16 to 18 hrs by CLSI based broth dilution method. Conditions: time 16-18 hrs. The format is functional.
Series [6] concerns Staphylococcus epidermidis. Nature of the series: Antibacterial activity against Staphylococcus epidermidis ATCC 12228 incubated for 16 to 18 hrs by CLSI based broth dilution method. The format is functional. Conditions: time 16-18 hrs. On the technique in general: Dilution methods test growth across graded concentrations, often in twofold steps.
In series [7] the test system is Escherichia coli. Nature of the series: Antibacterial activity against Escherichia coli ATCC 25922 incubated for 16 to 18 hrs by CLSI based broth dilution method. The format is functional. Conditions: time 16-18 hrs.
Series [8] deals with Acinetobacter baumannii. Nature of the series: Antibacterial activity against Acinetobacter baumannii ATCC 19606 incubated for 16 to 18 hrs by CLSI based broth dilution method. The format is functional. Conditions: time 16-18 hrs.
Series [9] has as its system HCT-116. Nature of the series: Cytotoxicity against human HCT-116 cells measured after 72 hrs by MTT assay. The format is functional, cell-based. Particulars: HCT-116, 72 h.
The test system of series [10] is Staphylococcus aureus. Nature of the series: Antibacterial activity against Staphylococcus aureus ATCC 29213 incubated for 16 to 18 hrs by CLSI based broth dilution method. It counts as functional. Conditions: time 16-18 hrs.
Series [11] deals with T1, Dihydrofolate reductase (Homo sapiens) (UniProt P00374).
T1 sequence (whole entry): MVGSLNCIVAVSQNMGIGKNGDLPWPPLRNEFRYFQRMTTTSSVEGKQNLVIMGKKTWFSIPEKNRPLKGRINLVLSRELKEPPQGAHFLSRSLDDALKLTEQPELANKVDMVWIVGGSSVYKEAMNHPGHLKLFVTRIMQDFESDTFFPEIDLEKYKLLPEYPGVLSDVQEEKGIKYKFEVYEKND
Nature of the series: Inhibition of human DHFR at 1 uM incubated for 10 mins in presence of NADPH by colorimetry based analysis relative to control.

Series [12] is described as follows: Metabolic stability in mouse liver microsomes assessed as intrinsic clearance at 1 uM measured upto 60 mins in presence of NADPH by LC-MS/MS analysis. The format is ADME, Microsome. Conditions: read-out: CLH.
The nature of series [13]: Metabolic stability in mouse liver microsomes assessed as hepatic clearance at 1 uM measured upto 60 mins in presence of NADPH by LC-MS/MS analysis. Particulars: 1 h. The format is ADME, Microsome. Background: Microsomes from liver hold many membrane-bound enzymes, among them those of drug oxidation.
For series [14], the system named is Staphylococcus aureus. Nature of the series: Antibacterial activity against methicillin-sensitive Staphylococcus aureus ATCC 29213 incubated for 16 to 18 hrs by CLSI based broth dilution method. The format is functional. Particulars: time 16-18 hrs.
For series [15], the system named is Klebsiella pneumoniae. Nature of the series: Antibacterial activity against Klebsiella pneumoniae 15-1 assessed as reduction in microbial growth incubated for 16 to 18 hrs by CLSI based broth dilution method. Conditions: time 16-18 hrs. It counts as functional.
For series [16], the system named is Acinetobacter baumannii. Nature of the series: Antibacterial activity against Acinetobacter baumannii ATCC 19606 assessed as reduction in microbial growth incubated for 16 to 18 hrs by CLSI based broth dilution method. It counts as functional. Conditions: time 16-18 hrs.
The test system of series [17] is Klebsiella pneumoniae. Nature of the series: Antibacterial activity against Klebsiella pneumoniae ATCC 700603 assessed as reduction in microbial growth incubated for 16 to 18 hrs by CLSI based broth dilution method. The format is functional. Conditions: time 16-18 hrs.
For series [18], the system named is Acinetobacter baumannii. Nature of the series: Antibacterial activity against Acinetobacter baumannii 20-1 incubated for 16 to 18 hrs by CLSI based broth dilution method. It counts as functional. Particulars: time 16-18 hrs.
The subject of series [19] is Escherichia coli. Nature of the series: Antibacterial activity against Escherichia coli ECO 15-1 incubated for 16 to 18 hrs by CLSI based broth dilution method. Particulars: time 16-18 hrs. It counts as functional.
In series [20] the test system is Pseudomonas aeruginosa. Nature of the series: Antibacterial activity against Pseudomonas aeruginosa ATCC 27853 incubated for 16 to 18 hrs by CLSI based broth dilution method. It counts as functional. Particulars: time 16-18 hrs.
In series [21] the test system is Staphylococcus aureus. Nature of the series: Antibacterial activity against methicillin-sensitive Staphylococcus aureus ATCC 25923 incubated for 16 to 18 hrs by CLSI based broth dilution method. The format is functional. Particulars: time 16-18 hrs.
For series [22], the system named is Acinetobacter baumannii. Nature of the series: Antibacterial activity against Acinetobacter baumannii 20-2 incubated for 16 to 18 hrs by CLSI based broth dilution method. It counts as functional. Particulars: time 16-18 hrs.
Series [23] relates to Staphylococcus aureus. Nature of the series: Antibacterial activity against methicillin-sensitive Staphylococcus aureus 15-1 incubated for 16 to 18 hrs by CLSI based broth dilution method. The format is functional. Particulars: time 16-18 hrs.

Consider `Nc1nc(N)c2c(ccc3c2cc(-c2ccccc2)n3Cc2nc3ccccc3s2)n1`, for which the IC50 in [1], in series [2], in [3] and in [9] was greater than 1000 nM throughout. Further, the minimal inhibitory concentration (MIC) in series [4] is 32 µg/mL (≈ 75.7 µM); in series [5] it was greater than 128 µg/mL; in series [6] it was 64 µg/mL (≈ 151 µM); in series [7], greater than 128 µg/mL; in series [8], greater than 128 µg/mL; in [10] it was greater than 128 µg/mL. Besides, the inhibition in series [11] turned out to be 17.3%.

In the case of `Nc1nc(N)c2c(ccc3c2ccn3Cc2ccc3ncsc3c2)n1`, the IC50 in series [1] is 3870 nM; in series [2] it was 310 nM; in series [3], 1170 nM; in [9] it was greater than 10000 nM. Also, the MIC in series [4] is 0.25 µg/mL (≈ 0.722 µM); in [5], 0.125 µg/mL (≈ 0.361 µM); in series [6], no more than 0.004 µg/mL; in [7], 0.25 µg/mL (≈ 0.722 µM); in series [8], 16 µg/mL (≈ 46.2 µM); in series [10], 0.25 µg/mL (≈ 0.722 µM). In series [11], the inhibition was found to be 80.6%.

As to `COc1ccc2c(c1)[C@]13CCCC[C@@H]1[C@H](C2)N(C)CC3` [DEXTROMETHORPHAN], the microsomal CLint at 1 µM in [12] stood at 135 µL/min/mg. Moreover, the CLH in [13] stood at 77 mL/min/kg.

In the case of `Cc1cc2c3c(N)nc(N)nc3ccc2n1Cc1cccc2scnc12`, the IC50 in series [1] was 450 nM; in [2], 4500 nM; in series [3], 250 nM; in series [9] it was greater than 10000 nM. Further, the MIC in [4] is 2 µg/mL (≈ 5.55 µM); in series [5] it was 1 µg/mL (≈ 2.77 µM); in series [6], no more than 0.004 µg/mL; in series [7], greater than 8 µg/mL; in series [8], 8 µg/mL (≈ 22.2 µM); in series [10], 1 µg/mL (≈ 2.77 µM). In [11], the inhibition was 99.4%.

Take `Nc1nc(N)c2c(ccc3c2ccn3Cc2nc3ccccc3o2)n1`: the half-maximal inhibitory concentration (IC50) was found to be 970 nM in [1], 69 nM in series [2], 660 nM in series [3] and 40 nM in series [9]. Moreover, the minimal inhibitory concentration (MIC) in series [4] came out at 0.25 µg/mL (≈ 0.757 µM); in series [5] it was 0.25 µg/mL (≈ 0.757 µM); in series [6], 0.008 µg/mL (≈ 0.0242 µM); in series [7] it was 0.25 µg/mL (≈ 0.757 µM); in series [8] it was 16 µg/mL (≈ 48.4 µM); in series [10] it was 0.5 µg/mL (≈ 1.51 µM). Also, the inhibition in [11] was 16.1%.

`Nc1nc(N)c2c(ccc3c2ccn3Cc2ccc3ccccc3n2)n1`: the MIC in series [14] was determined as 0.06 µg/mL (≈ 0.176 µM); in series [15] it was 4 µg/mL; in [4], 0.06 µg/mL (≈ 0.176 µM); in series [16] it was 4 µg/mL; in series [17] it was 2 µg/mL; in series [5], 0.03 µg/mL (≈ 0.0881 µM). The MIC in [6] was 0.25 µg/mL (≈ 0.734 µM); in [18], greater than 64 µg/mL; in [19], greater than 64 µg/mL; in series [7], 0.5 µg/mL (≈ 1.47 µM); in series [8] it was 4 µg/mL (≈ 11.8 µM); in series [10], 0.06 µg/mL (≈ 0.176 µM). Moreover, the MIC in series [20] is greater than 64 µg/mL; in [21], 0.125 µg/mL (≈ 0.367 µM); in series [22] it was 2 µg/mL (≈ 5.88 µM); in series [23], no more than 0.03 µg/mL. Moreover, the concentration for half-maximal inhibition (IC50) in [1] is 830 nM; in series [2] it was 210 nM; in [3], 270 nM; in [9], greater than 10000 nM. Further, in [11], the inhibition is 74.1%.
